According to patent US20260035384A1, “COMPOUND CONTAINING CYCLOHEXYL” (CHIA TAI TIANQING PHARMACEUTICAL GROUP CO., LTD., priority 2022, published 2026):
Positions count from the first letter of the chain named. pIC50: −log10 of the molar value.

Experiments:
AR in VCaP cells = biological target: T1, AR in VCaP cells (Homo sapiens, UniProt P10275); experiment: Assay on degradation activity for AR in VCaP cells (HTRF human androgen receptor detection kit); assay type: cell-based; conditions: 24 h incubation
T1 construct: Assay on Degradation Activity for AR in VCaP Cells; endogenous in cells; host or cells: VCaP cells
T1 sequence (P10275 1-920): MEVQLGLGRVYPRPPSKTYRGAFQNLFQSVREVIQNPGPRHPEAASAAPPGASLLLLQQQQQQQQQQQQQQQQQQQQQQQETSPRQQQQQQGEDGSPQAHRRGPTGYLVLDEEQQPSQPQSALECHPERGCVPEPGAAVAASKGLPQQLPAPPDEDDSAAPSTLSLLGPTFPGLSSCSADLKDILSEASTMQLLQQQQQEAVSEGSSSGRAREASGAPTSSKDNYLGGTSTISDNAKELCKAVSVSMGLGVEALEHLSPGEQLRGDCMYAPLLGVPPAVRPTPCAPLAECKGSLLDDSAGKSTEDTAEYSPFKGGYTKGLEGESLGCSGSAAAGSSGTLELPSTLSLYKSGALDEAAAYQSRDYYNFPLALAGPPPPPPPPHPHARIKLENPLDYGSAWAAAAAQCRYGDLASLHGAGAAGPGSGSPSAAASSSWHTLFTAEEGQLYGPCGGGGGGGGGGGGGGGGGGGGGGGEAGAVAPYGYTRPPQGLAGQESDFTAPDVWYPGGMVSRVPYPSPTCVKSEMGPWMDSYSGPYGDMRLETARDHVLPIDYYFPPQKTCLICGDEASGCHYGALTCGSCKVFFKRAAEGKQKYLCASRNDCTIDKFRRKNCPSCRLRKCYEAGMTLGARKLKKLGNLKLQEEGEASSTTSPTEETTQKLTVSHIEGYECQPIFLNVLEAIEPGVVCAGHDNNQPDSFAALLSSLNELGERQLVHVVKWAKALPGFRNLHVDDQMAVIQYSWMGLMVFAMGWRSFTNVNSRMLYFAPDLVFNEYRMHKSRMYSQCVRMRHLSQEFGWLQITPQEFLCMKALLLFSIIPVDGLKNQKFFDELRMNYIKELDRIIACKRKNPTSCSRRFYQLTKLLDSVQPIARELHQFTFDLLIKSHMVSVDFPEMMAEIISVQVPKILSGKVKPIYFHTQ
Outline: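 VCaP cells seeded overnight in 2% CSS-FBS phenol red-free DMEM, then treated 24 h with compound at 1000 nM–0.977 nM final, in duplicate. Lysates probed with AR Eu cryptate/d2 antibody HTRF (2 h, 25° C., 665/620 nm); DC50 and Dmax from four-parameter dose-response fits.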

AR in LNCaP cells = biological target: T2, AR in LNCaP cells (Homo sapiens, UniProt P10275, T878A); experiment: Assay on degradation activity for AR in LNCaP cells (HTRF human androgen receptor detection kit); assay type: cell-based; conditions: 24 h incubation
T2 construct: Assay on Degradation Activity for AR in LNCaP Cells; endogenous in cells; host or cells: LNCaP cells
T2 sequence (P10275 1-920 T878A): T1 sequence (P10275 1-920) with T878A
Outline: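 LNCaP cells seeded in 2% CSS-FBS phenol red-free 1640 medium overnight, then treated in duplicate with 500 nM–0.488 nM compound for 24 h. AR in lysates quantified by HTRF (Eu cryptate/d2 antibodies, 2 h, 25 °C, 665/620 nm); DC50 and Dmax from four-parameter fits.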

VCaP cells = experiment: Assay on inhibitory activity for VCaP cell proliferation (CCK-8); assay type: cell-based; conditions: Homo sapiens, 168 h incubation
Outline: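 VCaP cells seeded at 1×10^5 cells/mL in phenol red-free DMEM with 5% charcoal-stripped FBS, treated in duplicate at 10000–0.61 nM final. After 168 h incubation, viability was read with CCK-8.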

[1] = In vitro stability in liver microsome; assay type: in vitro ADME; conditions: human liver microsome 0.5 mg/mL, NADPH, 37° C.
Experimental: Liver microsome incubation samples (species: human, monkey, rat, and mouse) were prepared by mixing a PBS buffer (pH=7.4), a liver microsome solution (0.5 mg/mL), a test compound, and an NADPH+MgCl2 solution and incubated at 37° C. and 300 rpm for 1 h. Zero-hour samples were prepared by mixing a PBS buffer (pH=7.4), a liver microsome solution (0.5 mg/mL), and a test compound. An acetonitrile solution containing an internal standard was added to the samples, and supernatants were prepared by protein precipitation, diluted, and then assayed by LC/MS/MS.

N#Cc1ccc(O[C@H]2CC[C@H](NC(=O)c3ccc(N4CCC(N5CC(CN6Cc7ccc8c(C9CCC(=O)NC9=O)noc8c7C6)C5)CC4)nn3)CC2)cc1Cl (some centres unmarked) [Compound 90]
DC50 (AR in VCaP cells): ≤ 1 nM | DC50 (AR in LNCaP cells; HTRF): ≤ 20 nM | Dmax (AR in LNCaP cells; maximum degradation rate): > 80% | pIC50 (VCaP cells): > 8.00 | Human liver microsome Residuals at 60 min (%) [1]: >85%
